Results on two compounds are retold here after patent US10759803B2, “Asparagine endopeptidase (AEP) inhibitors for managing cancer and compositions related thereto” (priority 2014, dated 2020).

The structures appear in SMILES notation.

For one series, the target named is T1, CYP1A2 (Homo sapiens, UniProt P05177).
T1 sequence (P05177 1-516): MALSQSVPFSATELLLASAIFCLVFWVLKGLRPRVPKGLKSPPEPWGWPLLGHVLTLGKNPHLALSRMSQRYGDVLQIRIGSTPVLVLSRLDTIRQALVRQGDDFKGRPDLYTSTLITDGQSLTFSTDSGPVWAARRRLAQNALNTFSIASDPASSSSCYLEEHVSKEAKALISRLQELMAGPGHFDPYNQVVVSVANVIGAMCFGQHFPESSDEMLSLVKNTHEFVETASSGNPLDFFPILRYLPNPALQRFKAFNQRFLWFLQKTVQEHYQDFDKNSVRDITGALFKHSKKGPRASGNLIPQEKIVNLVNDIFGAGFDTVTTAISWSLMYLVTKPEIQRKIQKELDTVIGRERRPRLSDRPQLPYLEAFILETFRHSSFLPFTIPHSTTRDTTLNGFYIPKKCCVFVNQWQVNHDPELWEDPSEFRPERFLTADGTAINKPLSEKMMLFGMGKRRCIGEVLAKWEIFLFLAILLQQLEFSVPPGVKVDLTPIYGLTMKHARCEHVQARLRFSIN
Kind of series: CYP inhibition screening, CYP1A2. Format: in vitro ADME.

Another series addresses CYP2C9 (Homo sapiens, UniProt P11712). Description: CYP inhibition screening, CYP2C9. Format: in vitro ADME.
A further series addresses T2, AEP (Homo sapiens, UniProt Q99538).
T2 construct: tested with purified active AEP, IC50 values for the top 8 candidates were found
T2 sequence (Q99538 18-323 limits assumed): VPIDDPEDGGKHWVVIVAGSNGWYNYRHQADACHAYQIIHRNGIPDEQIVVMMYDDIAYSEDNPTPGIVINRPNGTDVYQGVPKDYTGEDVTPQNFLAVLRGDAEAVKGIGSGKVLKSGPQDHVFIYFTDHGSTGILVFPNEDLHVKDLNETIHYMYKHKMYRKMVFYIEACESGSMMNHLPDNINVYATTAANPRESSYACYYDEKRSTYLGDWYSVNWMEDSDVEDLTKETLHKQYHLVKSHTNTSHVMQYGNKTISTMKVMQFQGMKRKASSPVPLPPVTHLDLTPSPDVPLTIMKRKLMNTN
Description: DTT / L-cysteine reversibility of AEP inhibition. The class given is biochemical. The following applies: 10 mM DTT or L-cysteine added after 15 min. As for the experimental part: AEP was reacted with specified inhibitor, after 15 min 10 mM DTT or L-cysteine was added to the reaction and the fluorescent signal was read for an additional 15 min. At the end of the second 15 min incubation, the percentage of product formed in the presence of each compound was determined in comparison to the DMSO control reaction.
Although it is not intended that embodiments of this disclosure be limited by any particular mechanism, to gain additional insight into the mechanism utilized by the inhibitors for abrogation of AEP activity, their reversibility in the presence of free thiols was determined. The addition of a strong reducing agent, such as DTT, or a weaker reducing agent, L-cysteine, to an inhibited reaction can be used to out-compete the inhibitory agent and restore catalytic activity to an enzyme with an active-site thiol residue. Here, a similar approach was used by adding a reducing agent, either DTT or L-cysteine, to a reaction, in which AEP had been incubated with a specified inhibitor, in an attempt to reverse the effects of the inhibitor. […] For compounds BB1 and 38, this increase in enzymatic activity may be due to the reduction of a disulfide linkage between the inhibitor and the enzyme, since these compounds contain thiols. Compound 10 contains a thiocyanate and may undergoes nucleophilic attack by the enzyme's active-site thiolate to form a thioimidate enzyme-inhibitor complex. Under acidic conditions, this complex is reducible by either a strong reducing agent, such as DTT, or the weaker L-cysteine.

Another series deals with CYP3A. Description: CYP inhibition screening, CYP3A-Testosterone. Format: in vitro ADME.
Series [1] can be described thus: Mouse liver microsomal stability screen. As to conditions: Mouse liver microsomes.
For another series, the system named is Cathepsin. Description: Cathepsin activity in OGD-treated primary neurons. As to conditions: 5 μM D-Val-Leu-Lys-AMC. The class given is cell-based. As for the experimental part:
(§1) A. AEP activity, measured in primary neuronal cultures with 5 μM Cbz-Ala-Ala-Asn-AMC (x-axis denotes neurons were treated with 0.1 μM or 1.0 μM specified compound). B. Caspase activity, measured in primary neuronal cultures with 5 μM Ac-Asp-Glu-Val-Asp-AMC. C. Cathepsin activity, measured in primary neuronal cultures with 5 μM D-Val-Leu-Lys-AMC. D. Inhibition of APP cleavage. Lysates of primary cortical neurons pre-incubated with compounds for 30 min, underwent OGD for 4 hrs, were reperfused for 18 hrs (normoxia neurons remained at normoxic conditions). E. APP can be cleaved in a dose-dependent manner. Lysates of primary cortical neurons pre-incubated with compounds for 30 min, underwent OGD for 4 hrs, were reperfused for 18 hrs (normoxia neurons remained at normoxic conditions).
(§2) Depriving cells of oxygen and glucose is a cellular model that is employed to trigger acidosis in cultured cells. The efficacy of the compounds in a cellular model of oxygen-glucose deprivation (OGD) was determined in an effort to mimic the effects of stroke in primary cultured neurons. As a result of depriving neurons of oxygen and glucose-containing medium, AEP activity was doubled (FIG. 7A, ‘DMSO-Norm’ compared to ‘DMSO-OGD’), while Caspase-3 and Cathepsin activities remained relatively unchanged. […]

For the next series, the system named is Caspase-3. Description: Caspase activity in OGD-treated primary neurons. As to conditions: 5 μM Ac-Asp-Glu-Val-Asp-AMC. Format: cell-based. The method, then: as §1, §2

CYP2C9, sequence (P11712 whole entry): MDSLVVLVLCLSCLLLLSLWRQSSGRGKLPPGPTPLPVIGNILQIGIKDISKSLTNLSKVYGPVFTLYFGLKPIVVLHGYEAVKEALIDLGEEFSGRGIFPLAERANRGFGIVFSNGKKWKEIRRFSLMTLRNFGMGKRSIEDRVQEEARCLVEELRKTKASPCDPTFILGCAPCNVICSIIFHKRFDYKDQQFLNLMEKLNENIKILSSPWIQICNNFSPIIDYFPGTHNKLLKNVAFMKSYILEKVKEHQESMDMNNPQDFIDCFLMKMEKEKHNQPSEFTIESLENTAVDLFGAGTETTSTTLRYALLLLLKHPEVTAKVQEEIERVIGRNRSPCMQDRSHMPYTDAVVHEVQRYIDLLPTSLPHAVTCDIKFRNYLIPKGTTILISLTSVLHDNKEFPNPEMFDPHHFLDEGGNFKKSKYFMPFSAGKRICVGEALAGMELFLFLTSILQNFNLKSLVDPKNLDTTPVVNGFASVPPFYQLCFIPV

Regarding `Cn1c(=O)[nH]c(=O)c2c1nc(S)n2CC(O)COc1ccc(Cl)cc1` (stereo not shown) [Compound 38], the CYP1A2 inhibition at CYP1A2 (3 μM) is reported as −7.6%; on CYP1A2 (10 μM) it was 10.5%. Besides, the CYP2C9 inhibition was found to be 15.6% at CYP2C9 (3 μM) and 17.1% at CYP2C9 (10 μM). Also, at AEP, the “AEP activity after addition of reducing agent (reversibility)” value is given as “regained a substantial amount of activity”. Further, the CYP3A-Testosterone inhibition with CYP3A (3 μM) is reported as −6.0%; in the series with CYP3A (10 μM) it was 2.4%. For the same compound, the “Mean Remaining Parent (NADPH-free)” value in series [1] is 99%. In series [1], the “Mean Remaining Parent (with NADPH)” value was determined as 98%.
Take `Nc1ccc(N2CCOCC2)c2nonc12` [Compound 11]: the CYP1A2 inhibition at CYP1A2 (3 μM) was 13.1%; at CYP1A2 (10 μM) it was 37.0%. In addition, the CYP2C9 inhibition on CYP2C9 (3 μM) was determined as 4.3%; at CYP2C9 (10 μM), 5.6%. Besides, the CYP3A-Testosterone inhibition worked out at 4.1% in the series with CYP3A (3 μM) and 21.6% in the series on CYP3A (10 μM). Besides, in series [1], the “Mean Remaining Parent (NADPH-free)” value was determined as 103%. Moreover, the “Mean Remaining Parent (with NADPH)” value in series [1] is 20%. The “decrease of Cathepsin activity in OGD neurons” value with Cathepsin is “not observed”. For the same compound, in the series with Caspase-3, the “decrease of Caspase-3 activity in OGD neurons” value is “not observed”.
